Data published in the supplement of paper PMC10307832.

Columns and labels:
Test in all cases: relative viability (nuclei count vs DMSO), 5 days (fraction); higher = more cells survive
Dasatinib + Linsitinib = compound: Cc1nc(Nc2ncc(C(=O)Nc3c(C)cccc3Cl)s2)cc(N2CCN(CCO)CC2)n1 [Dasatinib] + C[C@]1(O)C[C@@H](c2nc(-c3ccc4ccc(-c5ccccc5)nc4c3)c3c(N)nccn32)C1 [Linsitinib] (partner 1 µM)
In short: (§1)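 Medians of duplicate plates are given as relative viability. That measure is the nuclei count in treated wells divided by the count in vehicle wells. Counts were taken on 4× images of lung cancer cell lines in 1536-well plates, 5 days after pin-tool dosing the day after seeding with one drug alone or a fixed anchor-drug dose plus five library-drug doses (not always all listed) in √10 steps.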

Dasatinib + Palbociclib = compound: Cc1nc(Nc2ncc(C(=O)Nc3c(C)cccc3Cl)s2)cc(N2CCN(CCO)CC2)n1 [Dasatinib] + CC(=O)c1c(C)c2cnc(Nc3ccc(N4CCNCC4)cn3)nc2n(C2CCCC2)c1=O [Palbociclib] (partner 0.5 µM)
In short: as §1

XMD13-2 + Pictilisib = compound: C1CC1C(=O)NC2=NNC3=C2C=CC(=C3)C4=CC(=CC=C4)C(=O)NC5CC5 [XMD13-2] + CS(=O)(=O)N1CCN(Cc2cc3nc(-c4cccc5[nH]ncc45)nc(N4CCOCC4)c3s2)CC1 [Pictilisib] (partner 1 µM)
In short: as §1

ALW-II-49-7 + Pemetrexed = compound: Cc1ccc(C(=O)Nc2cccc(C(F)(F)F)c2)cc1Nc1cncc(C(N)=O)c1 [ALW-II-49-7] + Nc1nc2[nH]cc(CCc3ccc(C(=O)N[C@@H](CCC(=O)O)C(=O)O)cc3)c2c(=O)[nH]1 [Pemetrexed] (partner 0.2 µM)
In short: as §1

Cell Line | relative viability (Dasatinib + Linsitinib; first compound 0.005 µM) | relative viability (Dasatinib + Linsitinib; first compound 0.01581 µM) | relative viability (Dasatinib + Linsitinib; first compound 0.05 µM) | relative viability (Dasatinib + Linsitinib; first compound 0.1581 µM) | relative viability (Dasatinib + Linsitinib; first compound 0.5 µM) | relative viability (Dasatinib + Palbociclib; first compound 0.005 µM) | relative viability (Dasatinib + Palbociclib; first compound 0.01581 µM) | relative viability (Dasatinib + Palbociclib; first compound 0.05 µM) | relative viability (Dasatinib + Palbociclib; first compound 0.1581 µM) | relative viability (Dasatinib + Palbociclib; first compound 0.5 µM) | relative viability (XMD13-2 + Pictilisib; first compound 0.05 µM) | relative viability (XMD13-2 + Pictilisib; first compound 0.1581 µM) | relative viability (XMD13-2 + Pictilisib; first compound 0.5 µM) | relative viability (XMD13-2 + Pictilisib; first compound 1.581 µM) | relative viability (XMD13-2 + Pictilisib; first compound 5 µM) | relative viability (ALW-II-49-7 + Pemetrexed; first compound 0.08 µM) | relative viability (ALW-II-49-7 + Pemetrexed; first compound 0.253 µM) | relative viability (ALW-II-49-7 + Pemetrexed; first compound 0.8 µM) | relative viability (ALW-II-49-7 + Pemetrexed; first compound 2.53 µM) | relative viability (ALW-II-49-7 + Pemetrexed; first compound 8 µM)
SK-LU-1 | 0.636 | 0.445 | 0.435 | 0.261 | 0.242 | 0.34 | 0.228 | 0.241 | 0.207 | 0.189 | 0.604 | 0.671 | 0.658 | 0.563 | 0.502 | 0.992 | 1.08 | 1.04 | 0.834 | 0.569
NCI-H23 | 0.483 | 0.38 | 0.505 | 0.315 | 0.213 | 0.536 | 0.476 | 0.38 | 0.34 | 0.271 | 0.579 | 0.438 | 0.503 | 0.446 | 0.457 | 0.59 | 0.672 | 0.752 | 0.783 | 0.511
NCI-H1355 | 0.686 | 0.597 | 0.667 | 0.428 | 0.369 | 0.36 | 0.282 | 0.299 | 0.244 | 0.224 | 0.45 | 0.406 | 0.415 | 0.496 | 0.366 | 0.964 | 1.13 | 1.01 | 1.04 | 1.07
COR-L23 | 0.867 | 0.665 | 0.613 | 0.329 | 0.242 | 0.317 | 0.229 | 0.229 | 0.168 | 0.19 | 0.8 | 0.72 | 0.857 | 0.818 | 0.64 | 0.198 | 0.208 | 0.206 | 0.204 | 0.177
NCI-H2023 | 0.439 | 0.384 | 0.426 | 0.329 | 0.188 | 0.319 | 0.304 | 0.303 | 0.326 | 0.204 | 0.318 | 0.244 | 0.219 | 0.24 | 0.225 | 0.235 | 0.23 | 0.237 | 0.214 | 0.242
A-427 | 1.1 | 1.14 | 0.995 | 0.574 | 0.535 | 0.5 | 0.507 | 0.525 | 0.42 | 0.394 | 0.871 | 0.732 | 0.797 | 0.537 | 0.558 | 0.982 | 1.11 | 0.926 | 1.02 | 1.06
NCI-H1793 | 0.524 | 0.644 | 0.553 | 0.506 | 0.472 | 0.217 | 0.279 | 0.236 | 0.247 | 0.231 | 0.288 | 0.442 | 0.373 | 0.403 | 0.192 | 1.05 | 0.806 | 1.08 | 0.868 | 0.734
LU99A | 0.494 | 0.481 | 0.434 | 0.199 | 0.173 | 0.354 | 0.379 | 0.379 | 0.308 | 0.2 | 0.298 | 0.334 | 0.32 | 0.284 | 0.254 |  | 0.19 | 0.163 | 0.172 | 0.184
NCI-H2009 | 1.21 | 1.02 | 1.23 | 0.821 | 0.193 | 0.186 | 0.137 | 0.138 | 0.103 | 0.101 | 0.838 | 0.945 | 0.904 | 0.822 | 0.566 | 0.971 | 1.14 | 0.955 | 0.751 | 0.749
